Patent publication US11591326B2, “Inhibitors of protein arginine methyltransferase 5 (PRMT5), pharmaceutical products thereof, and methods thereof” (PHARMABLOCK SCIENCES (NANJING), INC., priority 2018, dated 2023)

Biological target: Human recombinant PRMT5 in complex with human recombinant MEP50 (Homo sapiens (Human), UniProt O14744)
Assay: PRMT5/MEP50 AlphaLISA enzyme inhibitory assay
Assay type: biochemical
Details: PRMT5/MEP50 25 nM, SAM 10 μM, Biotin-H4 peptide 30 nM
From the text: Human recombinant PRMT5 in complex with human recombinant MEP50, co-expressed in an insect cell/baculovirus expression system was purchased from Reaction Biology (Malvern, Pa.). […] Anti-H4R3-Me AlphaLISA acceptor beads and Streptavidin labeled AlphaLISA donor beads were obtained from PerkinElmer (Waltham, Mass.). S-adenosylmethionine (SAM), Tween20, dimethylsulfoxide (DMSO), and Tris buffer were obtained from Sigma at the highest level of purity available.
General Procedure for PRMT5/MEP50 AlphaLISA Enzyme Inhibitory Assays: Assays were performed in the buffer consisting of 50 mM Tris, pH 8.5, 5 mM MgCl2, 50 mM NaCl with 0.01% Tween20 and 1 mM DTT added right before the assay. 2.5 μL of compound solution in the assay buffer with 4% DMSO and 5 μL of PRMT5/MRP50 complex/SAM mixture solution in the assay buffer which was pre-incubated for 30 minutes were added into a white low volume 384 well microtiter plate. This mixture solution was incubated for 15 minutes with gentle shaking at room temperature. Methyl transfer reaction was initiated by adding 2.5 μL of Biotin-H4 (1-21) peptide substrate solution in the assay buffer. Final concentrations of PRMT5/MEP50, SAM, Biotin-H4 peptide substrate, and DMSO were 25 nM, 10 μM, 30 nM, and 1%, respectively. The reaction was allowed to perform for 120 minutes in dark with gentle shaking at room temperature after which 5 μL of Anti-H4R3-Me AlphaLISA acceptor beads in detection buffer from the manufacturer was added into the reaction mixture followed by incubation for 60 minutes. 10 μL of Streptavidin labeled AlphaLISA donor beads in detection buffer was added into the mixture followed by 30 minute incubation. Final acceptor and donor beads concentrations were 10 μg/mL. Plates were read on an Envision multimode plate reader from PerkinElmer (Waltham Mass., USA) with an excitation wavelength of 680 nm and emission wavelength of 615 nm. IC50 values of inhibitors were obtained by fitting the fluorescence intensity vs inhibitor concentrations in a sigmoidal dose-response curve (variable slopes, four parameters) using Prism 7 (La Jolla, Calif.).

Sequence of Human recombinant PRMT5 in complex with human recombinant MEP50 (O14744 whole entry): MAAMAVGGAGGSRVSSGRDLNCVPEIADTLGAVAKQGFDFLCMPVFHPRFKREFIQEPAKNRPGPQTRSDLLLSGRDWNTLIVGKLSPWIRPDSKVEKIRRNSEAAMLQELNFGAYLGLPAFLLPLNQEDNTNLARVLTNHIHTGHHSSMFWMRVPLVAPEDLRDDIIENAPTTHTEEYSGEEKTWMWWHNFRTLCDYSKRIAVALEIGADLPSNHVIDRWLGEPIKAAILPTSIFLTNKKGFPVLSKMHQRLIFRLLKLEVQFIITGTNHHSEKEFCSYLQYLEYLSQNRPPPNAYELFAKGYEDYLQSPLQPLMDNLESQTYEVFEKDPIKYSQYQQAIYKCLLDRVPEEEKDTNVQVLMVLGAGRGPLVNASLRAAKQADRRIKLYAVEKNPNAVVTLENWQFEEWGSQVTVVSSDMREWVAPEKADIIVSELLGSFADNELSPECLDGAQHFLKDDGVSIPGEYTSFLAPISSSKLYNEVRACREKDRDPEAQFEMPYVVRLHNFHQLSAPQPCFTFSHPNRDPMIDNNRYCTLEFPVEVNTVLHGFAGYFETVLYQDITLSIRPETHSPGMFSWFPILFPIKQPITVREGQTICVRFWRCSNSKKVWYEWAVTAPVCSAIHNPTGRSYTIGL
Sequence of Human recombinant PRMT5 in complex with human recombinant MEP50 (Q9BQA1 whole entry partner): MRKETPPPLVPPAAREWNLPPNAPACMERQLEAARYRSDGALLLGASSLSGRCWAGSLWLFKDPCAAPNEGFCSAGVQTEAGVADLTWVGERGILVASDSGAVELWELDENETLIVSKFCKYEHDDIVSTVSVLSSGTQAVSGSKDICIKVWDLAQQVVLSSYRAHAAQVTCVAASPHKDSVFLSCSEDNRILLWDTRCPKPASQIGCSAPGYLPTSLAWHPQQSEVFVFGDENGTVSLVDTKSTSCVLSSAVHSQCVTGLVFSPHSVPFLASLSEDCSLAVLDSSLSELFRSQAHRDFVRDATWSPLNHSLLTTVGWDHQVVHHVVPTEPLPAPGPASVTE

| IC50 [nM] | SMILES |
| --- | --- |
| 11.4 | O=C1c2cc(Nc3ccnnc3)ccc2CCN1CC(O)CN1CCc2ccccc2C1 (stereo not shown) [Compound 28] |
| 296 | O=C1c2cc(Nc3ccnnc3)ccc2CCN1C[C@@H](O)CN1CCc2ccccc2C1 [Compound 28b, (S)-2-(3-(3,4-dihydroisoquinolin-2(1H)-yl)-2-hydroxypropyl)-7-(pyridazin-4-ylamino)-3,4-dihydroisoquinolin-1(2H)-one] |
| 36 | O=C1c2cc(Nc3ccnnc3)ccc2OCCN1C[C@@H](O)CN1CCc2ccccc2C1 [Compound 30b, (S)-4-(3-(3,4-dihydroisoquinolin-2(1H)-yl)-2-hydroxypropyl)-7-(pyridazin-4-ylamino)-3,4-dihydrobenzo[f][1,4]oxazepin-5(2H)-one] |
| 179 | O=c1c2cc(Nc3ccnnc3)ccc2ncn1CC(O)CN1CCc2ccccc2C1 (stereo not shown) [Compound 31, 3-(3-(3,4-dihydroisoquinolin-2(1H)-yl)-2-hydroxypropyl)-6-(pyridazin-4-ylamino)quinazolin-4(3H)-one] |
| 37.2 | O=c1c2cc(Nc3ccnnc3)ccc2ccn1CC(O)CN1CCc2ccccc2C1 (stereo not shown) [Compound 32, 2-(3-(3,4-dihydroisoquinolin-2(1H)-yl)-2-hydroxypropyl)-7-(pyridazin-4-ylamino)isoquinolin-1(2H)-one] |
| 22.4 | O=c1c2cc(Nc3ccnnc3)ccc2cnn1CC(O)CN1CCc2ccccc2C1 (stereo not shown) [Compound 33, 2-(3-(3,4-dihydroisoquinolin-2(1H)-yl)-2-hydroxypropyl)-7-(pyridazin-4-ylamino)phthalazin-1(2H)-one] |
| 15.7 | CC1(C)CN(CC(O)CN2CCc3ccccc3C2)C(=O)c2cc(Nc3ccnnc3)ccc21 (stereo not shown) [Compound 34, 2-(3-(3,4-dihydroisoquinolin-2(1H)-yl)-2-hydroxypropyl)-4,4-dimethyl-7-(pyridazin-4-ylamino)-3,4-dihydroisoquinolin-1(2H)-one] |
| 6.1 | O=C1c2cc(Nc3ccnnc3)ccc2C2(CC2)CN1CC(O)CN1CCc2ccccc2C1 (stereo not shown) [Compound 35, 2′-(3-(3,4-dihydroisoquinolin-2(1H)-yl)-2-hydroxypropyl)-7′-(pyridazin-4-ylamino)-2′,3′-dihydro-1′H-spiro[cyclopropane-1,4′-isoquinolin]-1′-one] |
| 6.9 | CN1C(=O)CN(CC(O)CN2CCc3ccccc3C2)C(=O)c2cc(Nc3ccnnc3)ccc21 (stereo not shown) [Compound 44, 4-(3-(3,4-dihydroisoquinolin-2(1H)-yl)-2-hydroxypropyl)-1-methyl-7-(pyridazin-4-ylamino)-3,4-dihydro-1H-benzo[e][1,4]diazepine-2,5-dione] |
| 9.6 | CN1CCN(CC(O)CN2CCc3ccccc3C2)C(=O)c2cc(Nc3ccnnc3)ccc21 (stereo not shown) [Compound 45, 4-(3-(3,4-dihydroisoquinolin-2(1H)-yl)-2-hydroxypropyl)-1-methyl-7-(pyridazin-4-ylamino)-1,2,3,4-tetrahydro-5H-benzo[e][1,4]diazepin-5-one] |
| 56.3 | O=C1c2cc(Nc3ccnnc3)cnc2OCCN1CC(O)CN1CCc2ccccc2C1 (stereo not shown) [Compound 47, 4-(3-(3,4-dihydroisoquinolin-2(1H)-yl)-2-hydroxypropyl)-7-(pyridazin-4-ylamino)-3,4-dihydropyrido[3,2-f][1,4]oxazepin-5(2H)-one] |
| 15.8 | O=C1c2cc(Nc3ccnnc3)ncc2OCCN1CC(O)CN1CCc2ccccc2C1 (stereo not shown) [Compound 48, 4-(3-(3,4-dihydroisoquinolin-2(1H)-yl)-2-hydroxypropyl)-7-(pyridazin-4-ylamino)-3,4-dihydropyrido[4,3-f][1,4]oxazepin-5(2H)-one] |
| 690 | O=C1c2nc(Nc3ccnnc3)ccc2OCCN1CC(O)CN1CCc2ccccc2C1 (stereo not shown) [Compound 49, 4-(3-(3,4-dihydroisoquinolin-2(1H)-yl)-2-hydroxypropyl)-7-(pyridazin-4-ylamino)-3,4-dihydropyrido[2,3-f][1,4]oxazepin-5(2H)-one] |
| 7.7 | O=C1c2cc(Nc3ccnnc3)c(F)cc2OCCN1CC(O)CN1CCc2ccccc2C1 (stereo not shown) [Compound 50, 4-(3-(3,4-dihydroisoquinolin-2(1H)-yl)-2-hydroxypropyl)-8-fluoro-7-(pyridazin-4-ylamino)-3,4-dihydrobenzo[f][1,4]oxazepin-5(2H)-one] |
| 6.5 | O=C1c2cc(Nc3ccnnc3)cc(F)c2OCCN1CC(O)CN1CCc2ccccc2C1 (stereo not shown) [Compound 51, 4-(3-(3,4-dihydroisoquinolin-2(1H)-yl)-2-hydroxypropyl)-9-fluoro-7-(pyridazin-4-ylamino)-3,4-dihydrobenzo[f][1,4]oxazepin-5(2H)-one] |

Further lines, the compound ahead of its results:

| SMILES | IC50 [nM] |
| --- | --- |
| Cn1cc(Nc2cc3c(cc2Cl)CCN(CC(O)CN2CCc4ccccc4C2)C3=O)cn1 (stereo not shown) [Compound 26, 6-chloro-2-(3-(3,4-dihydroisoquinolin-2(1H)-yl)-2-hydroxypropyl)-7-((1-methyl-1H-pyrazol-4-yl)amino)-3,4-dihydroisoquinolin-1(2H)-one] | 487 |
| Cn1ccc(Nc2ccc3c(c2)C(=O)N(CC(O)CN2CCc4ccccc4C2)CC3)cc1=O (stereo not shown) [Compound 27, 2-(3-(3,4-dihydroisoquinolin-2(1H)-yl)-2-hydroxypropyl)-7-((1-methyl-2-oxo-1,2-dihydropyridin-4-yl)amino)-3,4-dihydroisoquinolin-1(2H)-one] | 21 |
| Cn1cc(Nc2ccc3c(c2)C(=O)N(CC(O)CN2CCc4ccccc4C2)CCO3)cn1 (stereo not shown) [Compound 29] | 39 |
| Cn1cc(Nc2ccc3c(c2)C(=O)N(C[C@@H](O)CN2CCc4ccccc4C2)CCO3)cn1 [Compound 29b, (S)-4-(3-(3,4-dihydroisoquinolin-2(1H)-yl)-2-hydroxypropyl)-7-((1-methyl-1H-pyrazol-4-yl)amino)-3,4-dihydrobenzo[f][1,4]oxazepin-5(2H)-one] | 126 |
| O=C1c2cc(Nc3cncnc3)ccc2OCCN1C[C@H](O)CN1CCc2ccccc2C1 [Compound 36, (R)-4-(3-(3,4-dihydroisoquinolin-2(1H)-yl)-2-hydroxypropyl)-7-(pyrimidin-5-ylamino)-3,4-dihydrobenzo[f][1,4]oxazepin-5(2H)-one] | 10.3 |
| O=C1c2cc(Nc3ccncn3)ccc2OCCN1C[C@H](O)CN1CCc2ccccc2C1 [Compound 37, (R)-4-(3-(3,4-dihydroisoquinolin-2(1H)-yl)-2-hydroxypropyl)-7-(pyrimidin-4-ylamino)-3,4-dihydrobenzo[f][1,4]oxazepin-5(2H)-one] | 9.9 |
| O=C1c2cc(Nc3cnccn3)ccc2OCCN1C[C@H](O)CN1CCc2ccccc2C1 [Compound 38, (R)-4-(3-(3,4-dihydroisoquinolin-2(1H)-yl)-2-hydroxypropyl)-7-(pyrazin-2-ylamino)-3,4-dihydrobenzo[f][1,4]oxazepin-5(2H)-one] | 13.6 |
| O=C1c2cc(Nc3cccnn3)ccc2OCCN1C[C@H](O)CN1CCc2ccccc2C1 [Compound 39, (R)-4-(3-(3,4-dihydroisoquinolin-2(1H)-yl)-2-hydroxypropyl)-7-(pyridazin-3-ylamino)-3,4-dihydrobenzo[f][1,4]oxazepin-5(2H)-one] | 22.5 |
| Cn1ccc(Nc2ccc3c(c2)C(=O)N(C[C@H](O)CN2CCc4ccccc4C2)CCO3)cc1=O [Compound 40, (R)-4-(3-(3,4-dihydroisoquinolin-2(1H)-yl)-2-hydroxypropyl)-7-((1-methyl-2-oxo-1,2-dihydropyridin-4-yl)amino)-3,4-dihydrobenzo[f][1,4]oxazepin-5(2H)-one] | 12.2 |
| Cn1nccc1Nc1ccc2c(c1)C(=O)N(C[C@H](O)CN1CCc3ccccc3C1)CCO2 [Compound 41, (R)-4-(3-(3,4-dihydroisoquinolin-2(1H)-yl)-2-hydroxypropyl)-7-((1-methyl-1H-pyrazol-5-yl)amino)-3,4-dihydrobenzo[f][1,4]oxazepin-5(2H)-one] | 9.9 |
| Cc1nnc(Nc2ccc3c(c2)C(=O)N(C[C@H](O)CN2CCc4ccccc4C2)CCO3)o1 [Compound 42, (R)-4-(3-(3,4-dihydroisoquinolin-2(1H)-yl)-2-hydroxypropyl)-7-((5-methyl-1,3,4-oxadiazol-2-yl)amino)-3,4-dihydrobenzo[f][1,4]oxazepin-5(2H)-one] | 20.2 |
| CN1CC(Nc2ccc3c(c2)C(=O)N(C[C@H](O)CN2CCc4ccccc4C2)CCO3)CC1=O (stereo partly drawn) [Compound 43, 4-((R)-3-(3,4-dihydroisoquinolin-2(1H)-yl)-2-hydroxypropyl)-7-((1-methyl-5-oxopyrrolidin-3-yl)amino)-3,4-dihydrobenzo[f][1,4]oxazepin-5(2H)-one] | 51.7 |
| CC(=O)N1CCC(Nc2ccc3c(c2F)C(=O)N(CC(O)CN2CCc4ccccc4C2)CCO3)CC1 (stereo not shown) [Compound 46, 7-((1-acetylpiperidin-4-yl)amino)-4-(3-(3,4-dihydroisoquinolin-2(1H)-yl)-2-hydroxypropyl)-6-fluoro-3,4-dihydrobenzo[f][1,4]oxazepin-5(2H)-one] | 138 |
